Reference: patent publication US11071767B2, “Dietary compositions for reducing blood glucose levels and for weight management” (MARMAR INVESTMENT SP. Z O.O., priority 2014, dated 2021)

Experiments:
male Wistar rats [1] = experiment: Glucose tolerance test (sucrose or starch) in rats after plant extract combinations I-III (Example 2); assay type: in vivo, rat
Procedure: Each study group consisted of 10 rats. Rats were kept in individual cages in a ventilated at a constant temperature of about 22° C., controlled relative humidity of about 60% and appropriate lighting (day/night, 12/12 hours). During the experimental period, rats were fed the standard laboratory rodent mix. Rats were deprived of food 12 hours prior to the first measurement of blood glucose levels, while constant access to water was maintained. On the day of the experiment, rats were weighed and fasting blood glucose measurements were taken, via a scalpel incision at the tip of the tail. Next, rats were administered water (negative control), acarbose (positive control) or aqueous solutions of pre-defined combinations of plant extracts, as follows: • acarbose preparation: 35 mg per 1 kg body weight • combination I: white mulberry extract (120 mg per 1 kg body weight)+ bean extract (100 mg per 1 kg body weight)+ green coffee extract (20 mg per 1 kg body weight). • combination II: white mulberry extract (120 mg per 1 kg body weight)+ green coffee extract (20 mg per 1 kg body weight)+ arabinose preparation (25 mg per 1 kg body weight). • combination III: white mulberry extract (120 mg per 1 kg body weight)+ bean extract (100 mg per 1 kg body weight)+ green coffee extract (20 mg per 1 kg body weight)+ arabinose preparation (25 mg per 1 kg body weight). The solutions of the extracts were prepared so that the volume of liquid administered to an animal weighing 350 g was 1 mL. Water was administered to the control group in a similar manner. […] Statistical analysis using Student's t-test was performed for proper interpretation of results. Each result obtained for a particular product was compared to the analogous result obtained in the negative control (water) group. Results are presented in Table 2, below and in FIGS. 5A-5B.

male Wistar rats [2] = experiment: Glucose tolerance test in rats after single plant extracts (Example 1); assay type: in vivo, rat
Procedure: An experiment was conducted on 96 male Wistar rats with mean body weight of 381.2±16.6 g, bred at […] in Olsztyn. Each study group consisted of 12 rats. The animals were kept in individual cages in a ventilated room at a constant temperature of about 22° C., controlled relative humidity of about 60% and appropriate lighting (day/night, 12/12 hours). During the experimental period, the animals were fed a standard laboratory rodent mix. Rats were deprived of food 12 hours prior to the first measurement of blood glucose levels, while constant access to water was maintained. On the day of the experiment, the rats were weighed and fasting blood glucose measurements were taken, via a scalpel incision at the tip of the tail. Next, the animals received aqueous solutions of plant extracts, Acarbose, which served as a positive control (PC) or water, which served as a negative control (NC) at pre-defined quantities via a gastric tube. All the plant extracts were provided by […] Investment in a solution form, and were administered according to the following doses: • white mulberry extract (mulberry): 120 mg per 1 kg body weight • bean extract: 100 mg per 1 kg body weight • green coffee extract (coffee): 20 mg per 1 kg body weight • bitter melon extract (melon): 150 mg per 1 kg body weight • pomelo extract: 100 mg per 1 kg body weight • acarbose preparation: 35 mg per 1 kg body weight • arabinose preparation: 25 mg per 1 kg body weight The extract solutions were prepared so as the amount of liquid administered to a sample animal weighing 350 g was 1 mL. Water was administered to the control group in the same manner/volume. […] Statistical analysis using Student's t-test was performed for proper interpretation of results. Each result obtained for a particular product was compared to the analogous result obtained in the negative control (water) group.

[3] = GLUCOSE load (50% glucose solution), 0 min (fasting)
[4] = STARCH load (40% starch solution), 0 min (fasting)
[5] = SUCROSE load (50% sucrose solution), 0 min (fasting)

SMILES	blood glucose level (male Wistar rats [2]; [3]) [mg/dL]	blood glucose level (male Wistar rats [2]; GLUCOSE load, 15 min) [mg/dL]	blood glucose level (male Wistar rats [2]; GLUCOSE load, 30 min) [mg/dL]	blood glucose level (male Wistar rats [2]; GLUCOSE load, 60 min) [mg/dL]	blood glucose level (male Wistar rats [2]; GLUCOSE load, 90 min) [mg/dL]	blood glucose level (male Wistar rats [2]; GLUCOSE load, 120 min) [mg/dL]	blood glucose level (male Wistar rats [2]; GLUCOSE load, 180 min) [mg/dL]	blood glucose level (male Wistar rats [2]; [4]) [mg/dL]	blood glucose level (male Wistar rats [2]; STARCH load, 15 min) [mg/dL]	blood glucose level (male Wistar rats [2]; STARCH load, 30 min) [mg/dL]	blood glucose level (male Wistar rats [2]; STARCH load, 60 min) [mg/dL]	blood glucose level (male Wistar rats [2]; STARCH load, 90 min) [mg/dL]	blood glucose level (male Wistar rats [2]; STARCH load, 120 min) [mg/dL]	blood glucose level (male Wistar rats [2]; STARCH load, 180 min) [mg/dL]	blood glucose level (male Wistar rats [2]; [5]) [mg/dL]	blood glucose level (male Wistar rats [2]; SUCROSE load, 15 min) [mg/dL]	blood glucose level (male Wistar rats [2]; SUCROSE load, 30 min) [mg/dL]	blood glucose level (male Wistar rats [2]; SUCROSE load, 60 min) [mg/dL]	blood glucose level (male Wistar rats [2]; SUCROSE load, 90 min) [mg/dL]	blood glucose level (male Wistar rats [2]; SUCROSE load, 120 min) [mg/dL]	other results
C[C@H]1O[C@H](O[C@H]2[C@H](O)[C@@H](O)[C@@H](O[C@H]3[C@H](O)[C@@H](O)C(O)O[C@@H]3CO)O[C@@H]2CO)[C@H](O)[C@@H](O)[C@@H]1N[C@H]1C=C(CO)[C@@H](O)[C@H](O)[C@H]1O (some centres unmarked) [Acarbose]	95.6 ± 6.37	168.9 ± 16.33	163.3 ± 22.35	158.0 ± 12.91	157.6 ± 10.20	137.7 ± 10.07	106.8 ± 8.59	93.5 ± 6.36	120.0 ± 14.97	114.9 ± 14.48	100.1 ± 7.28	95.5 ± 6.17	94.6 ± 6.02	90.0 ± 7.03	94.2 ± 7.43	120.0 ± 15.80	114.9 ± 14.48	100.1 ± 7.28	95.5 ± 6.17	94.6 ± 6.02	blood glucose level (male Wistar rats [1]; STARCH 40% solution 2 g/kg, 0 min (fasting)): 89.7 ± 6.09 mg/dL; blood glucose level (male Wistar rats [1]; STARCH, 15 min): 105.5 ± 9.74 mg/dL; blood glucose level (male Wistar rats [1]; STARCH, 30 min): 104.6 ± 4.24 mg/dL; blood glucose level (male Wistar rats [1]; STARCH, 60 min): 97.3 ± 7.18 mg/dL; blood glucose level (male Wistar rats [1]; STARCH, 90 min): 98.3 ± 6.09 mg/dL; blood glucose level (male Wistar rats [1]; STARCH, 120 min): 94.8 ± 6.01 mg/dL; blood glucose level (male Wistar rats [1]; STARCH, 180 min): 88.7 ± 4.87 mg/dL; blood glucose level (male Wistar rats [1]; SUCROSE 50% solution 2 g/kg, 0 min (fasting)): 84.7 ± 4.81 mg/dL; blood glucose level (male Wistar rats [1]; SUCROSE, 15 min): 112.2 ± 8.58 mg/dL; blood glucose level (male Wistar rats [1]; SUCROSE, 30 min): 121.1 ± 8.93 mg/dL; blood glucose level (male Wistar rats [1]; SUCROSE, 60 min): 116.0 ± 6.87 mg/dL; blood glucose level (male Wistar rats [1]; SUCROSE, 90 min): 110.2 ± 6.51 mg/dL; blood glucose level (male Wistar rats [1]; SUCROSE, 120 min): 109.0 ± 4.66 mg/dL; blood glucose level (male Wistar rats [1]; SUCROSE, 180 min): 101.1 ± 5.34 mg/dL; blood glucose level (male Wistar rats [2]; SUCROSE load, 180 min): 90.0 ± 6.21 mg/dL
O=C[C@H](O)[C@@H](O)[C@@H](O)CO [Arabinose, L-Arabinose]	96.0 ± 3.62	170.9 ± 19.55	157.1 ± 20.27	148.2 ± 18.33	152.2 ± 11.19	137.0 ± 8.96	111.6 ± 14.42	90.9 ± 5.92	116.3 ± 8.88	123.5 ± 12.49	110.9 ± 7.28	111.5 ± 4.19	106.3 ± 6.54	100.1 ± 6.33	94.7 ± 7.31	135.4 ± 14.68	132.9 ± 15.65	132.9 ± 9.06	131.7 ± 7.55	125.4 ± 6.52	blood glucose level (male Wistar rats [2]; SUCROSE load, 180 min): 123.0 ± 7.25 mg/dL
